Test results reported in US20210393621A1, “COMBINATION SEROTONIN SPECIFIC REUPTAKE INHIBITOR AND SEROTONIN 1A RECEPTOR PARTIAL AGONIST FOR REDUCING L-DOPA-INDUCED DYSKINESIA” (The Research Foundation for The State University of new York, priority 2018, published 2021).
pKi: −log10 of the molar value. Entries after “also recorded” stand apart in the source; their conditions may differ. Like-named read-outs stand apart in the source and are kept apart here.

Experiments:
DRN 5-HT neurons = assay: Example 3: in vivo single-unit recordings of DRN 5-HT neurons; design: species or system rats
[1] = system: L-DOPA-primed 6-OHDA-lesioned rats; assay: Experiment 3: AIMs with 5-HT1AR or 5-HT1BR antagonist before Vilazodone and L-DOPA; type: in vivo, Sprague-Dawley rats; conditions: then VZD 0 or 10 mg/kg, then L-DOPA 6 mg/kg, s.c.
Method: In each study, the LD-primed rats received (FIG. 4A) the 5-HT1AR antagonist WAY100635 [WAY; 0 or 0.5 mg/kg, s.c.] or (FIG. 4B) the 5-HT1BR antagonist NAS [NAS; 0 or 0.3 mg/kg, s.c.]) 5 min prior to VZD (0 or 10 mg/kg, s.c.) injected 5 min prior to LD (6 mg/kg, s.c.) in a within-subjects counterbalanced design. ALO AIMs were evaluated and are shown for every 10 min for 3 h after LD administration.
All 6-OHDA-lesioned rats (n=17) were tested on the FAS prior to treatment regimens to establish baseline motor performance. Three-weeks post-surgery, all rats were primed with L-DOPA (6 mg/kg, s.c.) for 14 days.
Beginning 10 min post-treatment, a trained and blinded observer assigned a severity score (0-4) to each of the ALO AIMs based on 1 min ratings every 10 min for 3 h: 0, not present; 1, present from 1-29 s; 2, present 30-59 s; 3, present all 60 s, but interruptible by a cylinder tap; 4, present 60 s and not interruptible by a cylinder tap.

[2] = system: unilateral 6-OHDA-lesioned rats; assay: Example 2: L-DOPA-induced dyskinesias (LIDs) scoring; type: in vivo, Sprague-Dawley rats
Method: 6-OHDA-induced dopaminergic lesions: Adult male Sprague-Dawley rats were randomly assigned to groups receiving either a 6-OHDA or sham lesion. […] [[…] 2019]. […] Rats were treated for 5 consecutive days/week (Mon-Fri), for 2 weeks. […] All rats were evaluated three times per week for the presence of L-DOPA-induced dyskinesias (LIDs) (Wed-Fri) and once for the stepping test (Tue). […] Scores were given over 1 min epochs and classified as axial, limb, orolingual and locomotive. […] Arrows=inhibitory input; dashed arrows=compromised function. The severity of each LID was scored using a standard scale. Each dyskinetic behavior was given an intensity and frequency score, which were then multiplied. The average sum of the products of each LID was determined in each animal.

[3] = system: extracellular 5-HT, dopamine and norepinephrine; conditions: cited from earlier work; for extracellular dopamine and norepinephrine: rat brain, vilazodone 1 and 10 mg/kg; for maximal increase of extracellular 5-HT: rats, acute systemic injection, measured 3 h after injection
[4] = in vivo; cited from earlier work
[5] = dry and wet AMD; patients taking versus not taking L-DOPA; cited from earlier work
[6] = system: 6-OHDA-lesioned hemi-parkinsonian rats; assay: Experiment 1: forepaw adjusting steps (FAS); type: in vivo, Sprague-Dawley rats; conditions: L-DOPA-primed rats; VZD 0, 10 or 20 mg/kg + L-DOPA 6 mg/kg; 60 min post-L-DOPA
From the text: (§1) Conti et al., 2014). […] Forepaw adjusting steps (FAS): The FAS test is a measure of forelimb akinesia performed according to previous protocols (Bishop et al., 2012; Chang et al., 1999). Data are presented as mean percent intact stepping where the sum of the total steps with the lesioned forepaw was divided by the total steps with the unlesioned forepaw multiplied by 100. Lower percent intact scores indicate greater forelimb akinesia. Prior to baseline, rats received 2 acclimation periods. On-treatment FAS was performed 60 min post-L-DOPA.

[7] = system: 6-OHDA-lesioned hemi-parkinsonian rats; assay: Experiment 2: forepaw adjusting steps (FAS); type: in vivo, Sprague-Dawley rats; conditions: L-DOPA-naive rats; VZD 0, 10 or 20 mg/kg + L-DOPA 6 mg/kg; Days 1, 8, 15, 22
Method: as §1, with “[…].). All VZD injections were administered 5 min prior to LD. […] AIMs values expressed are the median sum of axial, limb, and orolingual (ALO) behaviors. […] Values are expressed as medians [±median absolute difference (M.A.D.)].” for “Conti et al., 2014).”

[8] = system: striatal and raphe tissue monoamines; assay: Experiment 1: HPLC of tissue monoamines and metabolites in striatum and dorsal raphe nucleus; conditions: for 5-HIAA / 5-HT / 5-HT Turnover / DA / DA Turnover / DOPAC: Striatum, VZD(0) + LD(6) mg/kg, 60 min post-LD
Method: Three-weeks post-lesion, animals were divided into 2 equally disabled groups, measured by forepaw adjusting steps (FAS, see below). One group (n=8) began receiving 14 days of daily vehicle (0.9% NaCl+0.1% ascorbic acid) and the other (n=22) received L-DOPA methyl ester (6 mg/kg, s.c.; Sigma)+DL-serine 2-(2,3,4-trihydroxybenzyl) hydrazine hydrochloride (benserazide; 15 mg/kg, s.c.; Sigma), hereafter L-DOPA, dissolved in vehicle at a volume of 1 mg/kg. Treatment persisted for 14 days to produce stable AIMs expression (Putterman et al., 2007; Conti et al., 2014). Thereafter, L-DOPA-treated animals with Axial, Limb, and Orolingual (ALO) AIMs (see description below, FIG. 1A)<30 were excluded from the study and the remaining L-DOPA-treated animals were divided into 3 equally dyskinetic groups. […] Daily injections continued over 23 days, with behavior assayed on Days 15, 22, 29, and 36. On Day 37, animals were killed 60 min post-treatment Left and right dorsal striata and DRN were dissected and flash frozen for HPLC analyses.
High-performance liquid chromatography (HPLC): HPLC, a method for semi-automated catecholamine analysis with coulometric detection, was performed according to prior protocols (Bishop et al., 2009) to determine the tissue levels of monoamines, their metabolites, and monoamine turnover in the striatum and DRN. The limit of detection for DOPAC, DA, 5-hydroxyindoleacetic acid (5-HIAA) and 5-HT was 10^−10 M. Final oxidation current values were plotted on a standard curve from 10^−6 M to 10^−9 M and expressed as pg of monoamine or metabolite per mg of tissue unless otherwise specified.
On the final treatment day, animals were sacrificed 60 min post-LD treatment and left and right striata and dorsal raphe nucleus (DRN) were collected for high performance liquid chromatography (HPLC) analysis. Values (means±standard mean error) are expressed as picograms of monoamine or metabolite per milligram wet tissue weight. Turnover estimates were determined by dividing a subjects metabolite value by its corresponding monoamine. Differences were assessed by a 2×4 (lesion×treatment) ANOVA, followed by Fisher's LSD post-hocs when appropriate. *p<0.01 vs lesion vs intact; +p<0.05 vs all; ^p<0.05 vs VZD (0)+LD (0); #p<0.05 vs VZD (0)+LD (6)

[9] = system: striatal c-Fos, PPD, PPE, PPT and 5-HT1AR mRNA; assay: Experiment 2: real-time RT-PCR of striatal gene expression
[10] = system: unilateral 6-OHDA-lesioned rats; assay: Example 2: stepping test; type: in vivo, Sprague-Dawley rats; conditions: vilazodone 10 mg/kg or escitalopram 12.5 mg/kg + L-DOPA 5 mg/kg; 60 minutes post L-DOPA
Method: 6-OHDA-induced dopaminergic lesions: Adult male Sprague-Dawley rats were randomly assigned to groups receiving either a 6-OHDA or sham lesion. All rats received desipramine (10 mg/kg i.p.) 30 min prior to surgery to prevent the lesioning of norepinephrine neurons by 6-OHDA. A single injection of 6-OHDA (8 μg of 6-OHDA free base in 4 μl of 0.1% ascorbic acid) was delivered into the right medial forebrain bundle (coordinates taken from bregma: −4.3 mm AP, 1.6 mm ML, −8.3 mm DV). The same experimental treatment was performed for the sham-operated rats using vehicle (4 μl of 0.1% ascorbic acid). A standard stepping test was used to evaluate the effectiveness of the 6-OHDA lesion.
Rats were treated for 5 consecutive days/week (Mon-Fri), for 2 weeks. On the second day of each week, stepping tests were performed prior to drug administration, and 60 minutes post L-DOPA treatment.

5HT2A = conditions: rat cerebral cortex; read-out: affinity Ki; cited from earlier work
5-HT1A receptor = molecular target: T1, 5-HT1A receptor (Homo sapiens, UniProt P08908); design: expressed in transfected cells; host or cells: SF9 cells; conditions: 5-HT1A receptor expressed in SF9 cells; cited from earlier work
T1 sequence (P08908 1-422): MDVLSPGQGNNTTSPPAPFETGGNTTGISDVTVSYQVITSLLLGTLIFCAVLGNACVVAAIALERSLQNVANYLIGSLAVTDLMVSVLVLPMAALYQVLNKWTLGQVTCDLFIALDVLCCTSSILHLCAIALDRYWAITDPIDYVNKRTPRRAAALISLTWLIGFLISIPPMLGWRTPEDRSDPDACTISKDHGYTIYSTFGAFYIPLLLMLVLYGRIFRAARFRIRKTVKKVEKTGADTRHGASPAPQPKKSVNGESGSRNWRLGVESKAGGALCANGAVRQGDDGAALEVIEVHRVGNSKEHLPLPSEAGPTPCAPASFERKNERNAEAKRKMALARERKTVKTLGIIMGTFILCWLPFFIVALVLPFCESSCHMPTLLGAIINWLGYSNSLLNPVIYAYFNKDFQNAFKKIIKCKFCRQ

[11] = lesioned striata, VZD 0, 10 or 20 mg/kg + L-DOPA 6 mg/kg daily, day 23, 60 min post-injection

## COc1ccccc1N1CCN(CCN(C(=O)C2CCCCC2)c2ccccn2)CC1.O=C(O)/C=C\C(=O)O [WAY100635, N-[2-[4(2-Methoxyphenyl)-1-piperazinyl]ethyl]-N-2-pyridinylcyclohexanecarboxamide maleate salt]
DRN 5-HT neurons; i.v., 8-OH-DPAT then WAY-100635 100 μg/kg, BFP and D2Rs expressing rats
  spontaneous firing of DRN 5-HT neurons: return to baseline firing was observed
[1]; WAY100635 0 or 0.5 mg/kg
  summed ALO AIMs, 5-HT1AR study: partially reversed the anti-dyskinetic efficacy of Vilazodone
[2]; WAY100635 with vilazodone + L-DOPA
  effect of 5-HT1A blockade on vilazodone's benefit on LIDs: reverses the beneficial effects of vilazodone on LIDs

## c1ccc2c(c1)OC[C@H](CNCCCOc1ccc3c(c1)OCO3)O2 [MKC-242]
[3]
  extracellular dopamine and norepinephrine: caused an increase

## O=C1CC2(CCCC2)CC(=O)N1CCCCN1CCN(c2ncccn2)CC1 [buspirone]
[3]
  extracellular dopamine and norepinephrine: caused an increase

## C1=C(CN2CCOCC2)COc2c1cccc2OC[C@H]1CNCCO1.CS(=O)(=O)O [NAS-181, (R)-(+)-2-(3-morpholinomethyl-2H-chromen-8-yl) oxymethyl-morpholine methane-sulfonate]
[1]; NAS-181 0 or 3.0 mg/kg
  ALO AIMs, 5-HT1BR study: did not significantly alter AIMs or their reduction by Vilazodone

## N[C@@H](Cc1ccc(O)c(O)c1)C(=O)O [L-DOPA, L-3,4-dihydroxyphenylalanine]
[4]
  fraction that crosses the blood-brain barrier: 5-10%
[5]
  delay of onset of AMD: around 8 years
[6]
  FAS motor performance versus baseline: significant improvements on motor performance over baseline
[7]
  FAS stepping relative to baseline: significant increases in motor ability on each test day
[8]; L-DOPA 6 mg/kg
  DRN levels of DA, DOPAC and DA Turnover: significantly increased DRN levels of DA, DOPAC and DA Turnover
[8]; Intact
  5-HIAA: 650 ± 68.9 picograms per milligram wet ti
  5-HT: 241 ± 29.6^ picograms per milligram wet ti
  5-HT Turnover: 2.77 ± 0.15+
  DA: 4561 ± 210 picograms per milligram wet ti
  DA Turnover: 0.89 ± 0.04
  DOPAC: 4051 ± 224 picograms per milligram wet ti
[8]; Lesion
  5-HIAA: 907 ± 82.5 picograms per milligram wet ti
  5-HT: 264 ± 39.6 picograms per milligram wet ti
  5-HT Turnover: 3.93 ± 0.63
  DA: 83.3 ± 7.99 picograms per milligram wet ti
  DA Turnover: 1.42 ± 0.23
  DOPAC: 127 ± 30.7 picograms per milligram wet ti
[9]; FIG. 6B
  striatal PPT mRNA: did not increase striatal PPT
[9]; lesioned striata, L-DOPA 6 mg/kg, Vilazodone 20 mg/kg
  striatal PPE mRNA: significantly increased PPE
[9]; [11]
  striatal PPD mRNA: significantly increased PPD
  striatal c-Fos mRNA: potentiated c-Fos

## CNCCC(Oc1ccc(C(F)(F)F)cc1)c1ccccc1 (centres unmarked) [fluoxetine]
[3]; frontal cortex
  maximal increase of extracellular 5-HT: 165%
[3]; ventral hippocampus
  maximal increase of extracellular 5-HT: 274%

## CN(C)CCC[C@@]1(c2ccc(F)cc2)OCc2cc(C#N)ccc21 [Escitalopram]
[10]
  forelimb akinesia and L-DOPA prokinetic / therapeutic efficacy (stepping test): affected L-DOPA therapeutic efficacy; also recorded: interfered with the therapeutic efficacy of L-DOPA
[2]; pretreatment with vilazodone 10 mg/kg or escitalopram 12.5 mg/kg before L-DOPA 5 mg/kg, 2 weeks
  LIDs score / severity: significantly reduced LIDs severity; also recorded: significant reduction in total LIDs score

## O=S1(=O)N(CCN2CC=C(c3c[nH]c4cc(F)ccc34)CC2)c2cccc3c2N1CCC3 [LY367265]
5HT2A
  pKi: 6.31

## Br.CCCN(CCC)C1CCc2cccc(O)c2C1 (centres unmarked) [8-OH-DPAT, 8-hydroxy-2-(dipropylamino) tetralin hydrobromide]
DRN 5-HT neurons; rat, in vivo, iv
  spontaneous firing of DRN 5-HT neurons: suppressed the spontaneous firing of a DRN neuron
[3]
  extracellular dopamine and norepinephrine: caused an increase
5-HT1A receptor
  increase of [35S]GTPγS binding compared to vehicle: eightfold
